Literature values, collected in patent publication US20240115492A1, “AN ORODISPERSIBLE PHARMACEUTICAL SOLID DOSAGE FORM OF RASAGILINE” (INTAS PHARMACEUTICALS LTD., priority 2021, published 2024).

C#CCN(C)[C@H](C)Cc1ccccc1 [selegiline]
Selegiline plasma exposure, ODT versus conventional tablets (10 mg orally disintegrated tablets vs conventional 10 mg tablets): twelve-time higher | selegiline absorbed through the mucous membrane of the mouth (ODT form (10 mg), within 1 minute): about 30%
